Test results: patent US10799605B2 (3B PHARMACEUTICALS GMBH, priority 2014, dated 2020)
Like-named read-outs stand apart in the source and are kept apart here.

Tests used:
NTR1 [1] = target: T1, NTR1 (Homo sapiens (Human), UniProt P30989); assay: Radioligand binding assay NTR1 (example part I)
Description: In order to determine the binding affinity of compounds comprising a radiolabel for NTR1, a radioligand binding assay was carried out. A radioligand is a radioactive biochemical substance that is used for diagnosis or for research-oriented study of cellular receptor systems of the body. In […] systems it is often used to quantify the binding of a test molecule to the binding site of radioligand. The higher the affinity of the molecule, the more radioligand is displaced from the binding site. The amount of bound radioligand can be measured by scintillation counting and thereby quantified. This assay is commonly used to calculate binding constants of molecules to receptors.
The NTR1 radioligand binding assay was performed by Cerep (Celle l'Evescault, France; Catalog reference 0109) according to Vita et al., FEBS Lett., 1993, 317, 139-142. NTR1 was prepared from CHO cells recombinantly expressing the human receptor and incubated with 0.05 nM ^125I-(Tyr^3-neurotensin) and serial dilutions of the test compounds. […] The result for each test compound is expressed as IC50 concentration and provides a measure for the affinity of the test compound for NTR1.

NTR1 [2] = target: T1, NTR1; assay: Functional Ca2+ mobilisation assay (example part I); assay type: cell-based
From the text: (§1) Ca^2+ ions are usually kept at nanomolar levels in the cytosol of cells, and act in a number of signal transduction pathways as second messengers. […] Changes in calcium ion concentration in standard assay protocols can be readily detected with fluorescent dyes that emit light when changes in intracellular Ca^2+ ion concentration occur. Given the transient nature of these responses, they are often read with instrumentation that has ‘inject and read’ capability.
(§2) HT29 or NTR1-expressing HEK293 cells were trypsinized and seeded into black flat clear-bottom 96-well plates (Corning, Amsterdam, The Netherlands) at […] cells per well. After 24 h incubation at 37° C. and 5% CO2, cells were washed twice with wash buffer (130 mM NaCl, 5 mM KCl, 10 mM Hepes, 2 mM CaCl2, 10 mM Glucose, pH 7.4) and loaded with 100 μl of Ca5 dye (Molecular Devices, Biberach, Germany) for 1 h at 37° C. and 5% CO2. For agonist assays, serial dilutions of agonistic substances were added to the cells loaded with dye and the change of the fluorescent signal was recorded continually for approx. 90 s using a FlexStation II (Molecular Devices, Biberach, Germany). Addition of wash buffer served as a control. Thus, EC50 concentrations for each conjugate were computed and provided a measure for the potency of the substance. For antagonist assays, cells loaded with 100 μl of Ca5-dye were pre-incubated with serial dilutions of antagonistic substances for 30 min, before the EC80-concentration of agonist was added to the cells and the change of the fluorescent signal was recorded continually for approx. 90 s. Thus, IC50 concentrations were computed for each conjugate and provided a measure for the inhibitory activity of the conjugates at the NTR1.

NTR1 [3] = target: T1, NTR1; assay: Functional Ca2+ mobilisation assay (example part II); assay type: cell-based; conditions: antagonist assay
From the text: as §1, with “intracellular Ca2^+” for “intracellular Ca^2+”
as §2, with “compound” for “conjugate”, “compounds” for “conjugates”

[4] = 0.05 nM 125I-(Tyr3-neurotensin), 60 min at 4° C., read-out: IC50
[5] = agonist assay, * bell-shaped curves, EC50 from ascending part of the curve, read-out: Agonistic Effect EC50
[6] = antagonist assay, 30 min pre-incubation, EC80-concentration of agonist, read-out: Antagonistic Effect IC50

T1 sequence (P30989 whole entry): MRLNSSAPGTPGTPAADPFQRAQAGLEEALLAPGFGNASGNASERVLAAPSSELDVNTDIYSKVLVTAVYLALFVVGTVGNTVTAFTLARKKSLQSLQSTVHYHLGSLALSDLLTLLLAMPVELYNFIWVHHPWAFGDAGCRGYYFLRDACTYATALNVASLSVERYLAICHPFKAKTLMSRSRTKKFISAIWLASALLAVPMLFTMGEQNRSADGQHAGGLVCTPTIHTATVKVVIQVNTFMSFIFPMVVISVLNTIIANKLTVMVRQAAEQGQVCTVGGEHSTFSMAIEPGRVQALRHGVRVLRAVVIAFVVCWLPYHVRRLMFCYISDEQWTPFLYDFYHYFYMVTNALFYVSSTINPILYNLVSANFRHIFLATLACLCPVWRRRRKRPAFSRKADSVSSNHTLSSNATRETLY

| Compound | IC50 (NTR1 [1]) [nM] | EC50 (NTR1 [2]) [nM] | IC50 (NTR1 [2]) [nM] | further results |
| --- | --- | --- | --- | --- |
| COc1cccc(OC)c1-c1cc(C(=O)NC2(C(=O)O)C3CC4CC(C3)CC2C4)nn1-c1ccc(C(=O)N(C)CCCN(C)CCCN(C)C(=O)CCCC(=O)NCCCOCCOCCOCCCNC(=O)CCC(=O)NCCCOCCOCCOCCCNC(=O)CCC(=O)NCCCOCCOCCOCCCNC(=O)CCC(=O)N[C@@H](CC(N)=O)C(=O)N[C@@H](C)C(=O)N[C@H](C(=O)N2CCC[C@H]2C(=O)N[C@@H](CC(N)=O)C(=O)N[C@@H](CC(C)C)C(=O)N[C@@H](CCCNC(=N)N)C(=O)NCC(=O)N[C@@H](CC(=O)O)C(=O)N[C@@H](CC(C)C)C(=O)N[C@@H](CCC(N)=O)C(=O)N[C@H](C(=O)N[C@@H](CC(C)C)C(=O)N[C@@H](C)C(=O)N[C@@H](CCC(N)=O)C(=O)N[C@@H](CCCCN)C(=O)N[C@H](C(=O)N[C@@H](C)C(=O)N[C@@H](CCCNC(=N)N)C(=O)N[C@H](C(=O)NCCCC(=O)NCCCOCCOCCOCCCNC(=O)CCC(=O)N[C@@H](CCCCNC(=O)CN2CCN(CC(=O)O)CCN(CC(=O)O)CCN(CC(=O)O)CC2)C(N)=O)[C@@H](C)O)C(C)C)C(C)C)C(C)C)cc1C(C)C (some centres unmarked) [(24)] | 9.9 | > 50000 | 38 | – |
| COc1cccc(OC)c1-c1cc(C(=O)NC2(C(=O)O)C3CC4CC(C3)CC2C4)nn1-c1ccc(C(=O)N(C)CCCN(C)CCCN(C)C(=O)CCN2C(=O)CC(SC[C@H](NC(=O)CCC(=O)NCCCOCCOCCOCCCNC(=O)CCC(=O)NCCCOCCOCCOCCCNC(=O)CCC(=O)NCCCOCCOCCOCCCNC(=O)[C@H](CCCCNC(=O)CN3CCN(CC(=O)O)CCN(CC(=O)O)CCN(CC(=O)O)CC3)NC(=O)CCC(=O)NCCCOCCOCCOCCCNC(=O)CCC(=O)NCCCOCCOCCOCCCNC(=O)CCC(=O)NCCCOCCOCCOCCCNC(=O)CCCNC(=O)[C@@H](NC(=O)[C@H](CCCNC(=N)N)NC(=O)[C@H](C)NC(=O)[C@@H](NC(=O)[C@H](CCCCN)NC(=O)[C@H](CCC(N)=O)NC(=O)[C@H](C)NC(=O)[C@H](CC(C)C)NC(=O)[C@@H](NC(=O)[C@H](CCC(N)=O)NC(=O)[C@H](CC(C)C)NC(=O)[C@H](CC(=O)O)NC(=O)CNC(=O)[C@H](CCCNC(=N)N)NC(=O)[C@H](CC(C)C)NC(=O)[C@H](CC(N)=O)NC(=O)[C@@H]3CCCN3C(=O)[C@@H](NC(=O)[C@H](C)NC(=O)[C@H](CC(N)=O)NC(C)=O)C(C)C)C(C)C)C(C)C)[C@@H](C)O)C(N)=O)C2=O)cc1C(C)C (some centres unmarked) [(23)] | 6.7 | > 50000 | 15 | – |
| COc1cccc(OC)c1-c1cc(C(=O)NC2(C(=O)O)C3CC4CC(C3)CC2C4)nn1-c1ccc(C(=O)N(C)CCCN(C)CCCN(C)C(=O)CCCC(=O)NCCCCCC(=O)N[C@@H](CCCCNC(=O)CN2CCN(CC(=O)O)CCN(CC(=O)O)CCN(CC(=O)O)CC2)C(=O)N[C@@H](CCCCNC(=O)CCCC(=O)N(C)CCCN(C)CCCN(C)C(=O)c2ccc(-n3nc(C(=O)NC4(C(=O)O)C5CC6CC(C5)CC4C6)cc3-c3c(OC)cccc3OC)c(C(C)C)c2)C(N)=O)cc1C(C)C (some centres unmarked) [(14), 1206-Glutar-Ahx-Lys(DOTA)-(ε-Lys-NH2)-Glutar-1206] | – | – | – | IC50 (NTR1 [1]; [4]): 2.4 nM; EC50 (NTR1 [2]; [5]): > 50000 nM; IC50 (NTR1 [2]; [6]): 2.3 nM |
| COc1cccc(OC)c1-c1cc(C(=O)NC2(C(=O)O)C3CC4CC(C3)CC2C4)nn1-c1ccc(C(=O)N(C)CCCN(C)CCCN(C)C(=O)CCCC(=O)NCCCOCCOCCOCCCNC(=O)CCC(=O)NCCCC[C@H](NC(=O)CCC(=O)NCCCOCCOCCOCCCNC(=O)CCCC(=O)N(C)CCCN(C)CCCN(C)C(=O)c2ccc(-n3nc(C(=O)NC4(C(=O)O)C5CC6CC(C5)CC4C6)cc3-c3c(OC)cccc3OC)c(C(C)C)c2)C(=O)NCCCOCCOCCOCCCNC(=O)CCC(=O)N[C@@H](CC(N)=O)C(=O)N[C@@H](C)C(=O)N[C@H](C(=O)N2CCC[C@H]2C(=O)N[C@@H](CC(N)=O)C(=O)N[C@@H](CC(C)C)C(=O)N[C@@H](CCCNC(=N)N)C(=O)NCC(=O)N[C@@H](CC(=O)O)C(=O)N[C@@H](CC(C)C)C(=O)N[C@@H](CCC(N)=O)C(=O)N[C@H](C(=O)N[C@@H](CC(C)C)C(=O)N[C@@H](C)C(=O)N[C@@H](CCC(N)=O)C(=O)N[C@@H](CCCCN)C(=O)N[C@H](C(=O)N[C@@H](C)C(=O)N[C@@H](CCCNC(=N)N)C(=O)N[C@H](C(=O)NCCCC(=O)NCCCOCCOCCOCCCNC(=O)CCC(=O)N[C@@H](CCCCNC(=O)CN2CCN(CC(=O)O)CCN(CC(=O)O)CCN(CC(=O)O)CC2)C(N)=O)[C@@H](C)O)C(C)C)C(C)C)C(C)C)cc1C(C)C (some centres unmarked) [(25)] | 7.5 | > 50000 | 12 | – |
| COc1cccc(OC)c1-c1cc(C(=O)NC2(C(=O)O)C3CC4CC(C3)CC2C4)nn1-c1ccc(C(=O)N(C)CCCN(C)CCCN(C)C(=O)CCCNC(=O)[C@H](CCCCNC(=O)CN2CCN(CC(=O)O)CCN(CC(=O)O)CCN(CC(=O)O)CC2)NC(=O)CCCC(=O)N(C)CCCN(C)CCCN(C)C(=O)c2ccc(-n3nc(C(=O)NC4(C(=O)O)C5CC6CC(C5)CC4C6)cc3-c3c(OC)cccc3OC)c(C(C)C)c2)cc1C(C)C (some centres unmarked) [(13), 1206-Glutar-Lys(DOTA)-GABA-1206] | – | – | – | IC50 (NTR1 [1]; [4]): 2.2 nM; EC50 (NTR1 [2]; [5]): > 50000 nM; IC50 (NTR1 [2]; [6]): 6.1 nM |
| COc1cccc(OC)c1-c1cc(C(=O)N[C@H](C(=O)O)C2CCCCC2)nn1-c1ccc(C(=O)N(C)CCCN(C)CCCN(C)C(=O)CN2CCN(CC(=O)O)CCN(CC(=O)O)CCN(CC(=O)O)CC2)cc1C(C)C [(IVa), (S)-2-{[1-{4-[(3-{[3-(DOTA-methyl-amino)-propyl]-methyl-amino}-propyl)-methyl-carbamoyl]-2-isopropyl-phenyl}-5-(2,6-dimethoxy-phenyl)-1H-pyrazole-3-carbonyl]-amino}-cyclohexyl-acetic acid] | – | – | – | IC50 (NTR1 [3]): 125 nM |
| COc1cccc(OC)c1-c1cc(C(=O)NC2(C(=O)O)C3CC4CC(C3)CC2C4)nn1-c1ccc(C(=O)N(C)CCCN(C)CCCN(C)C(=O)CCCC(=O)NCCCC[C@H](NC(=O)CCC(=O)NCCCOCCOCCOCCCNC(=O)CCC(=O)NCCCOCCOCCOCCCNC(=O)CCC(=O)NCCCOCCOCCOCCCNC(=O)[C@H](CCCCNC(=O)CN2CCN(CC(=O)O)CCN(CC(=O)O)CCN(CC(=O)O)CC2)NC(=O)CCC(=O)NCCCOCCOCCOCCCNC(=O)CCC(=O)NCCCOCCOCCOCCCNC(=O)CCC(=O)NCCCOCCOCCOCCCNC(=O)CCCC(=O)N(C)CCCN(C)CCCN(C)C(=O)c2ccc(-n3nc(C(=O)NC4(C(=O)O)C5CC6CC(C5)CC4C6)cc3-c3c(OC)cccc3OC)c(C(C)C)c2)C(N)=O)cc1C(C)C (some centres unmarked) [(15), 1206-Glutar-Ttds3-Lys(DOTA)-Ttds3-(ε-Lys-NH2)-Glutar-1206] | 4.7 | > 50000 | 2.3 | – |
| COc1cccc(OC)c1-c1cc(C(=O)NC2(C(=O)NCCNC(=O)CN3CCN(CC(=O)O)CCN(CC(=O)O)CCN(CC(=O)O)CC3)C3CC4CC(C3)CC2C4)nn1-c1ccc(C(=O)N(C)CCCN(C)C)cc1C(C)C (centres unmarked) [(XVII), 5-(2,6-Dimethoxy-phenyl)-1-{4-[(3-dimethylamino-propyl)-methyl-carbamoyl]-2-isopropyl-phenyl}-1H-pyrazole-3-carboxylic acid [2-(2-DOTA-amino-ethylcarbamoyl)-adamantan-2-yl]-amide, reference compound] | – | – | – | IC50 [nM] Ca (NTR1 [3]): inactivity |
